According to the NIST ThermoML archive (doi:10.1016/j.jct.2006.07.025):

Test: xn = mol fraction of the nth substance listed
Conditions: for surface tension liquid-gas: Pendant drop shape; for mass density: 101 kPa, Liquid, Vibrating tube method

Cc1cc(C)cc(C)c1 [1,3,5-trimethylbenzene] + CCCOC(C)=O
Conditions | mass density [kg/m3] | surface tension liquid-gas [mN/m]
298.15 K, x2 = 0 | 861.04 | 28.09
298.15 K, x2 = 0.0498 | 861.7 | –
298.15 K, x2 = 0.0996 | 862.38 | 27.63
298.15 K, x2 = 0.1504 | 863.1 | –
298.15 K, x2 = 0.2006 | 863.85 | 27.16
298.15 K, x2 = 0.2502 | 864.63 | –
298.15 K, x2 = 0.3006 | 865.46 | 26.7
298.15 K, x2 = 0.3499 | 866.32 | –
298.15 K, x2 = 0.4003 | 867.23 | 26.27
298.15 K, x2 = 0.4498 | 868.17 | –
298.15 K, x2 = 0.4985 | 869.14 | 25.85
298.15 K, x2 = 0.5526 | 870.28 | –
298.15 K, x2 = 0.6001 | 871.33 | 25.46
298.15 K, x2 = 0.65 | 872.49 | –
298.15 K, x2 = 0.6987 | 873.7 | 25.09
298.15 K, x2 = 0.7369 | 874.66 | –
298.15 K, x2 = 0.7983 | 876.31 | 24.73
298.15 K, x2 = 0.8504 | 877.83 | –
298.15 K, x2 = 0.8995 | 879.31 | 24.35
298.15 K, x2 = 0.9397 | 880.63 | –
303.15 K, x2 = 0 | 856.96 | 27.67
303.15 K, x2 = 0.1 | 857.96 | 27.18
303.15 K, x2 = 0.2012 | 859.34 | 26.69
303.15 K, x2 = 0.2995 | 860.81 | 26.2
303.15 K, x2 = 0.3998 | 862.5 | 25.74
303.15 K, x2 = 0.4996 | 864.32 | 25.3
303.15 K, x2 = 0.6004 | 866.41 | 24.9
303.15 K, x2 = 0.7007 | 868.63 | 24.5
303.15 K, x2 = 0.7987 | 871.2 | 24.12
303.15 K, x2 = 0.9009 | 874.11 | 23.73
308.15 K, x2 = 0 | 852.84 | 27.24
308.15 K, x2 = 0.0985 | 853.66 | 26.73
308.15 K, x2 = 0.1992 | 854.81 | 26.2
308.15 K, x2 = 0.3018 | 856.13 | 25.69
308.15 K, x2 = 0.3991 | 857.53 | 25.21
308.15 K, x2 = 0.5009 | 859.15 | 24.75
308.15 K, x2 = 0.6012 | 861.08 | 24.33
308.15 K, x2 = 0.6997 | 863.19 | 23.91
308.15 K, x2 = 0.7983 | 865.52 | 23.52
308.15 K, x2 = 0.8997 | 868.19 | 23.11
313.15 K, x2 = 0 | 848.74 | 26.82
313.15 K, x2 = 0.0503 | 848.97 | –
313.15 K, x2 = 0.1004 | 849.28 | 26.28
313.15 K, x2 = 0.1501 | 849.65 | –
313.15 K, x2 = 0.1999 | 850.05 | 25.73
313.15 K, x2 = 0.2499 | 850.49 | –
313.15 K, x2 = 0.3004 | 851.02 | 25.19
313.15 K, x2 = 0.3502 | 851.58 | –
313.15 K, x2 = 0.3998 | 852.18 | 24.69
313.15 K, x2 = 0.449 | 852.83 | –
313.15 K, x2 = 0.5001 | 853.57 | 24.21
313.15 K, x2 = 0.5502 | 854.4 | –
313.15 K, x2 = 0.6 | 855.29 | 23.76
313.15 K, x2 = 0.6503 | 856.26 | –
313.15 K, x2 = 0.7005 | 857.33 | 23.33
313.15 K, x2 = 0.7499 | 858.44 | –
313.15 K, x2 = 0.8003 | 859.87 | 22.92
313.15 K, x2 = 0.8499 | 861.27 | –
313.15 K, x2 = 0.9003 | 862.85 | 22.5
313.15 K, x2 = 0.9504 | 864.3 | –
